# Laboratory results reported in PubChem BioAssay (NCI).
#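 Where inhibition never reached the appropriate level, the endpoint shown equals the highest concentration tested. Otherwise, values were interpolated linearly from a five-concentration, 48-hour dose response in 96-well plates. TGI is the concentration that stops growth completely.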
# What was measured:
# Test in all cases: NCI-60 cell line screen, 48 h
# SF-295 CNS = system: SF-295 CNS
# SK-OV-3 ovarian = system: SK-OV-3 ovarian
# UO-31 renal = system: UO-31 renal
# MALME-3M melanoma = system: MALME-3M melanoma
# RXF 393 renal = system: RXF 393 renal
# SF-268 CNS = system: SF-268 CNS
# TK-10 renal = system: TK-10 renal
# T-47D breast = system: T-47D breast
# SF-539 CNS = system: SF-539 CNS
# KM12 colon = system: KM12 colon
# SW-620 colon = system: SW-620 colon
# SN12C renal = system: SN12C renal
# SK-MEL-2 melanoma = system: SK-MEL-2 melanoma
# HCC-2998 colon = system: HCC-2998 colon
# LOX IMVI melanoma = system: LOX IMVI melanoma
# CAKI-1 renal = system: CAKI-1 renal
# HCT-15 colon = system: HCT-15 colon
# MDA-MB-231 breast = system: MDA-MB-231 breast
# SR leukemia = system: SR leukemia
# SK-MEL-5 melanoma = system: SK-MEL-5 melanoma
# PC-3 prostate = system: PC-3 prostate
# NCI-H522 lung = system: NCI-H522 lung
# SNB-19 CNS = system: SNB-19 CNS
# SK-MEL-28 melanoma = system: SK-MEL-28 melanoma
# MDA-N = system: MDA-N
# HCT-116 colon = system: HCT-116 colon
# OVCAR-8 ovarian = system: OVCAR-8 ovarian
# ACHN renal = system: ACHN renal
# OVCAR-3 ovarian = system: OVCAR-3 ovarian
# HT29 colon = system: HT29 colon
# COLO 205 colon = system: COLO 205 colon
# BT-549 breast = system: BT-549 breast
# IGROV1 ovarian = system: IGROV1 ovarian
# U251 CNS = system: U251 CNS
# CCRF-CEM leukemia = system: CCRF-CEM leukemia
# EKVX NSCLC = system: EKVX NSCLC
# NCI-H23 lung = system: NCI-H23 lung
# NCI-H226 lung = system: NCI-H226 lung
# MDA-MB-435 = system: MDA-MB-435
# SNB-75 CNS = system: SNB-75 CNS
# NCI/ADR-RES ovarian = system: NCI/ADR-RES ovarian
# A498 renal = system: A498 renal
# 786-0 renal = system: 786-0 renal
# MCF7 breast = system: MCF7 breast
# HL-60(TB) leukemia = system: HL-60(TB) leukemia
# UACC-62 melanoma = system: UACC-62 melanoma
# OVCAR-4 ovarian = system: OVCAR-4 ovarian
# HOP-92 NSCLC = system: HOP-92 NSCLC
# DU-145 prostate = system: DU-145 prostate
# A549 NSCLC = system: A549 NSCLC
# HS 578T breast = system: HS 578T breast
# K-562 leukemia = system: K-562 leukemia
# M14 melanoma = system: M14 melanoma
# MOLT-4 leukemia = system: MOLT-4 leukemia
# HOP-62 NSCLC = system: HOP-62 NSCLC
# RPMI-8226 leukemia = system: RPMI-8226 leukemia
# OVCAR-5 ovarian = system: OVCAR-5 ovarian
# UACC-257 melanoma = system: UACC-257 melanoma
# NCI-H460 lung = system: NCI-H460 lung
structure (smiles),measurement,setting,value
COC(=O)[C@H](C)NC(=O)C1(CNC(=O)[C@H](C)NC(=O)OC(C)(C)C)Cc2ccccc2-c2ccccc2C1,TGI,SF-295 CNS,51.6 µM
same,TGI,SK-OV-3 ovarian,> 100 µM
same,TGI,UO-31 renal,11.6 µM
same,TGI,MALME-3M melanoma,36.1 µM
same,TGI,RXF 393 renal,> 88.9 µM
same,TGI,SF-268 CNS,52.5 µM
same,TGI,TK-10 renal,> 59.2 µM
same,TGI,T-47D breast,> 62 µM
same,TGI,SF-539 CNS,> 58.1 µM
same,TGI,KM12 colon,40.2 µM
same,TGI,SW-620 colon,> 64.3 µM
same,TGI,SN12C renal,34.6 µM
same,TGI,SK-MEL-2 melanoma,> 68.9 µM
same,TGI,HCC-2998 colon,> 59.8 µM
same,TGI,LOX IMVI melanoma,9.13 µM
same,TGI,CAKI-1 renal,> 39.6 µM
same,TGI,HCT-15 colon,31.1 µM
same,TGI,MDA-MB-231 breast,35.4 µM
same,TGI,SR leukemia,43.4 µM
same,TGI,SK-MEL-5 melanoma,> 55 µM
same,TGI,PC-3 prostate,> 75.4 µM
same,TGI,NCI-H522 lung,20.8 µM
same,TGI,SNB-19 CNS,> 100 µM
same,TGI,SK-MEL-28 melanoma,> 70.6 µM
same,TGI,MDA-N,> 58.5 µM
same,TGI,HCT-116 colon,> 54.1 µM
same,TGI,OVCAR-8 ovarian,18.2 µM
same,TGI,ACHN renal,> 57.7 µM
same,TGI,OVCAR-3 ovarian,49.6 µM
same,TGI,HT29 colon,39.8 µM
same,TGI,COLO 205 colon,53.9 µM
same,TGI,BT-549 breast,> 70.3 µM
same,TGI,IGROV1 ovarian,33.2 µM
same,TGI,U251 CNS,36.5 µM
same,TGI,CCRF-CEM leukemia,43.9 µM
same,TGI,EKVX NSCLC,47 µM
same,TGI,NCI-H23 lung,37.8 µM
same,TGI,NCI-H226 lung,61.5 µM
same,TGI,MDA-MB-435,38.2 µM
same,TGI,SNB-75 CNS,> 60.2 µM
same,TGI,NCI/ADR-RES ovarian,41.4 µM
same,TGI,A498 renal,> 71.1 µM
same,TGI,786-0 renal,36.4 µM
same,TGI,MCF7 breast,> 84.3 µM
same,TGI,HL-60(TB) leukemia,39.5 µM
same,TGI,UACC-62 melanoma,34 µM
same,TGI,OVCAR-4 ovarian,> 63.5 µM
same,TGI,HOP-92 NSCLC,21.2 µM
same,TGI,DU-145 prostate,> 42.7 µM
same,TGI,A549 NSCLC,48.8 µM
same,TGI,HS 578T breast,> 60.1 µM
same,TGI,K-562 leukemia,54 µM
same,TGI,M14 melanoma,> 78.5 µM
same,TGI,MOLT-4 leukemia,37.6 µM
same,TGI,HOP-62 NSCLC,> 100 µM
same,TGI,RPMI-8226 leukemia,23.9 µM
same,TGI,OVCAR-5 ovarian,41.1 µM
same,TGI,UACC-257 melanoma,> 78.9 µM
same,TGI,NCI-H460 lung,42.9 µM
